Measurements taken from US6608178B1, “5-hydroxytryptophol (5-HTOL) derivatives, antibodies, immunoassays and detection of recent alcohol consumption” (Alco Dia A.B., priority 1996, dated 2003).

Assays:
[1] = system: mouse monoclonal anti-5-HTOL antibody; assay: Cross reactivity in the competitive immunoassay (labelled conjugate IV vs. anti-5-HTOL antibody); type: binding; settings: allowable maximal cross reactivity in urine for a 50 nM detection limit of T-5-G; the tested antibody complied with these criteria
Experimental: Crossreactivity for various substances was measured in the immunoassay method described below with dilutions (in the diluent) of the tested substance used in stead of urine or standard. The concentration range tested for each substance covered three magnitudes and was up to or above one magnitude the highest noted literature value.
Diluent was 0.05 M sodium phosphate buffer, pH 7.0, containing 0.01 M EDTA, 0.1% Tween® and 1% BSA. Decanting solution was Pharmacia decanting suspension without added antibody suspension (Pharmacia Diagnostics AB). μ-agarose particles carried covalently bound sheep-anti-mouse antibody.
Assay Procedure: Pipette to a test tube 50 μl urine or standard, 50 μl tracer solution, 50 μl antibody solution (one of the above-mentioned six selected clones, 5 μg/ml), mix on shaker ˜600 rpm for ˜1 min, allow to stand for 1.5 h at room temperature, 50 μl of the sheep anti-mouse micro-agarose suspension (˜100 mg/ml), mix as above and let stand for another 0.5 h, then add 2 ml decanting solution, centrifuge 10 min at 3000 rpm, with tubes in Pharmacia decanting racks, in the JR-3.2 Rack Rotor, in a Beckman J-6B centrifuge. Within 5 min after completed centrifugation decant the supernatant and let tube racks stand inverted on absorbtive tissue for 2 min. Finally the remaining radioactivity in the tubes is measured in a gamma counter. A standard curve is made with T-5-G in the diluent at 10, 100, 1000 and 10000 nmol/L.

[2] = human urine; cited from earlier work

For `O=C(O)Cc1c[nH]c2ccc(O)cc12` [5-HIAA, 5-hydroxyindole-3-acetic acid], the “Acceptable Crossreactivity” value [1] was ≤ 0.07%.

For `N[C@@H](Cc1c[nH]c2ccc(O)cc12)C(=O)O` [5-hydroxytryptophan], the “Acceptable Crossreactivity” value [1] was ≤ 0.1%.

In the case of `COc1ccc2[nH]cc(CCN)c2c1` [5-methoxytryptamine], the “Acceptable Crossreactivity” value [1] is reported as ≤ 5%.

With `COc1ccc2[nH]cc(CCO)c2c1` [5-methoxytryptophol] the “Acceptable Crossreactivity” value [1] was ≤ 5%.

In the case of `O=C(O)[C@H]1O[C@@H](Oc2ccc3[nH]cc(CCO)c3c2)[C@H](O)[C@@H](O)[C@@H]1O` [T-5-G, 3-(2-hydroxyethyl)indole-5-yl-O-β-D-glucopyranosiduronic acid], the “Share of urinary 5-HTOL conjugated with glucuronic acid” value [2] is given as 75-95%.

With `C[C@]12CC[C@@H]3c4ccc(O[C@@H]5O[C@H](C(=O)O)[C@@H](O)[C@H](O)[C@H]5O)cc4CC[C@H]3[C@@H]1CCC2=O` [estrone-β-D-glucuronide] the “Acceptable Crossreactivity” value [1] was ≤ 50%.

For `O=Cc1c[nH]c2ccccc12` [indole-3-aldehyde], the “Acceptable Crossreactivity” value [1] was ≤ 0.05%.

In the case of `O=C(O)Cc1c[nH]c2ccccc12` [indolyl acetic acid], the “Acceptable Crossreactivity” value [1] is reported as ≤ 0.07%.

In the case of `O=S(=O)(O)Oc1c[nH]c2ccccc12` [indoxyl sulphate], the “Acceptable Crossreactivity” value [1] is reported as ≤ 0.002%.

With `O=C(O)[C@H]1O[C@@H](Oc2c[nH]c3ccccc23)[C@H](O)[C@@H](O)[C@@H]1O` [indoxyl-β-D-glucuronide] the “Acceptable Crossreactivity” value [1] was ≤ 0.002%.

In the case of `COc1ccc2[nH]cc(CCNC(C)=O)c2c1` [melatonin], the “Acceptable Crossreactivity” value [1] is reported as ≤ 50%.

With `O=C(O)[C@H]1O[C@@H](Oc2ccc([N+](=O)[O-])cc2)[C@H](O)[C@@H](O)[C@@H]1O` [p-nitrophenyl-β-D-glucuronide] the “Acceptable Crossreactivity” value [1] was ≤ 0.002%.

In the case of `NCCc1c[nH]c2ccc(O)cc12` [serotonin, 5-hydroxytryptamine], the “Acceptable Crossreactivity” value [1] is reported as ≤ 7%.

In the case of `CC12CCC(=O)C=C1CCC1C2CCC2(C)C(OC3OC(C(=O)O)C(O)C(O)C3O)CCC12` [testosterone-β-D-glucuronide], the “Acceptable Crossreactivity” value [1] is reported as ≤ 50%.

With `NCCc1c[nH]c2ccccc12` [tryptamine] the “Acceptable Crossreactivity” value [1] was ≤ 6%.

With `N[C@@H](Cc1c[nH]c2ccccc12)C(=O)O` [tryptophan] the “Acceptable Crossreactivity” value [1] was ≤ 0.6%.
